Values after ≈ are worked out from the molar mass of the structure shown.
Assays:
[1] = test system: DT-C cells (pGV-P-transfected v-ki-ras-transformed NIH3T3 cells); assay: Luciferase activity in control DT-C cells (IC50-C): non-specific transcription-inhibitory effect or cytotoxicity; type: cell-based, mouse; conditions: tested concentration nearest to 50% inhibition in DT-C cells, index of non-specific transcription inhibition or cytotoxicity
Procedure, shortened: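 Luciferase from an SV40 minimal promoter was read in DT-C cells (2500 cells/well) 24 h after compound addition at […] to 0.51 ng/ml in 3-fold steps. IC50-C is the tested concentration nearest 50% inhibition.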

[2] = test system: human pancreas cancer PANC-1; assay: In vitro cell growth inhibition test, MTT assay; type: cell-based; conditions: MTT assay 4 days after compound addition
Procedure, shortened: (§1)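 In vitro testing uses the MTT assay. The same panel includes human pancreas cancer PANC-1.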

human colon cancer HT29 = assay: In vitro cell growth inhibition test, MTT assay; type: cell-based; conditions: MTT assay 4 days after compound addition
Procedure, shortened: as §1

[3] = test system: human lung adenocarcinoma A549; assay: In vitro cell growth inhibition test, MTT assay; type: cell-based; conditions: MTT assay 4 days after compound addition
Procedure, shortened: as §1

[4] = test system: human squamous lung cancer Ma44; assay: In vitro cell growth inhibition test, MTT assay; type: cell-based; conditions: MTT assay 4 days after compound addition
Procedure, shortened: as §1

[5] = test system: human squamous lung cancer RERF-RC-AI; assay: In vitro cell growth inhibition test, MTT assay; type: cell-based; conditions: MTT assay 4 days after compound addition
Procedure, shortened: as §1

[6] = test system: DT-R cells (pRRE3-luc-transfected v-ki-ras-transformed NIH3T3 cells); signal derived from Ras oncogene products; assay: Inhibitory effect against cellular signaling derived from Ras oncogene products: luciferase reporter, dissociation of DT-R from DT-C activity (MAC); type: cell-based, mouse; conditions: minimal tested concentration at which luciferase activities of DT-C cells and DT-R cells dissociated
Procedure, shortened: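 DT-R (pRRE3-luc) and control DT-C (pGV-P) v-Ki-ras NIH3T3 cells were exposed 24 h to compound in 3-fold dilutions in DMEM/10% FCS at 37 °C, then lysed for luciferase luminescence. MAC is the lowest tested concentration at which DT-R and DT-C activities dissociate.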

human lung cancer Ma44 = assay: Evaluation of in vivo antitumor efficacy, tumor growth inhibition; set-up: species or system mouse; conditions: Ma44 in Balb/c nude mice; 30 mg/kg orally daily for 14 days; P<0.01
Text: (§2) Test Example 3 Evaluation of in Vivo Antitumor Efficacy
(§3) Murine colon cancer Colon 26, human lung cancer RERF-LC-AI and human lung cancer Ma44 were used. Murine- and human-derived tumor cells were maintained by serial transplantation in Balb/c and Balb/c nude mice, respectively. After tumor implantation, compound A-42 suspended in 5% methylcellulose solution were orally administered daily for 14 days. Tumor size (short diameter and long diameter) was scored throughout the experiment and tumor volume was calculated. Antitumor efficacy was evaluated as growth inhibition which was estimated by Treated/Control ratio and shown as % inhibition.

[7] = test system: Murine colon cancer Colon 26; assay: as above; set-up: species or system mouse; conditions: Colon 26 in Balb/c mice; 30 mg/kg orally daily for 14 days; P<0.01
Text: as §2, §3

[8] = test system: human lung cancer RERF-LC-AI; assay: as above; conditions: RERF-LC-AI in Balb/c nude mice; 30 mg/kg orally daily for 14 days; P<0.01
Text: as §2, §3

| melting point | IC50 ([2]; Homo sapiens, PANC-1, 96 h) | IC50 (human colon cancer HT29; Homo sapiens, HT-29, 96 h) | IC50 ([3]; Homo sapiens, A549, 96 h) | IC50 ([4]; Homo sapiens, 96 h) | IC50 ([5]; Homo sapiens, 96 h, read-out: IC50, RERF-LC-AI) | IC50, HT29 (human colon cancer HT29) | IC50, Ma44 [4] | IC50, RERF-LC-AI [5] | IC50, PANC-1 [2] | IC50, A549 [3] | SMILES | IC50 ([1]; Mus musculus, NIH3T3) | MAC (Minimal Active Concentration) [6] | Growth inhibition (Treated/Control ratio, shown as % inhibition) (human lung cancer Ma44) | Growth inhibition (Treated/Control ratio, shown as % inhibition) [7] | IC50-C [1] | Growth inhibition (Treated/Control ratio, shown as % inhibition) [8] |
| --- | --- | --- | --- | --- | --- | --- | --- | --- | --- | --- | --- | --- | --- | --- | --- | --- | --- |
| 156 to 157 °C | 0.051 µg/mL (≈ 0.114 µM) | 0.052 µg/mL (≈ 0.117 µM) | 0.063 µg/mL (≈ 0.141 µM) | 0.056 µg/mL (≈ 0.126 µM) | 0.046 µg/mL (≈ 0.103 µM) |  |  |  |  |  | CCN/C(=N\c1nc(C)ncc1CSc1nnc(-c2ccc([N+](=O)[O-])cc2)o1)SC [Compound G-1] | > 10 µg/mL | 0.370 µg/mL |  |  |  |  |
|  |  |  |  |  |  | 0.011 µg/mL (≈ 0.0267 µM) | 0.049 µg/mL (≈ 0.119 µM) | 0.0083 µg/mL (≈ 0.0201 µM) |  |  | CCNC(=Nc1nc(C)ncc1CSc1nnc(-c2ccc(N)cc2)o1)NCC [Compound A-42] |  | 0.0137 µg/mL | 66% | 70% | >10 µg/mL | 74% |
|  |  |  |  |  |  | 0.029 µg/mL (≈ 0.0616 µM) | 0.039 µg/mL (≈ 0.0829 µM) | 0.023 µg/mL (≈ 0.0489 µM) | 0.018 µg/mL (≈ 0.0383 µM) | 0.074 µg/mL (≈ 0.157 µM) | CCNC(=Nc1nc(C(C)C)ncc1CSc1nnc(-c2ccc([N+](=O)[O-])cc2)o1)NCC [Compound A-130] |  | 0.123 µg/mL |  |  | 3.33 µg/mL (≈ 7.08 µM) |  |
|  |  |  |  |  |  | 0.015 µg/mL (≈ 0.0375 µM) | 0.024 µg/mL (≈ 0.0601 µM) | 0.011 µg/mL (≈ 0.0275 µM) | 0.013 µg/mL (≈ 0.0325 µM) | 0.028 µg/mL (≈ 0.0701 µM) | CCNC(=Nc1ncncc1CSc1nnc(-c2ccncc2N)o1)NCC [Compound D-37] |  | 0.123 µg/mL |  |  | >10 µg/mL |  |

— patent US6420367B1, “Pyrimidine derivatives exhibiting antitumor activity” (Shionogo & Co., Ltd., priority 1998, dated 2002)
